From ChEMBL document CHEMBL1909046, “DrugMatrix in vitro pharmacology data”

Key:
[1] = biological target: Aldo-keto reductase family 1 member B1 (Rattus norvegicus, UniProt P07943); format: tissue-based, Lens of camera-type eye;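 further: inhibition of aldose reductase enzyme activity, measured with DL-glyceraldehyde as the substrate; in other assays of this panel Not Active means under 50% inhibition at 10 µM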
[2] = biological target: T1, Type-2 angiotensin II receptor (Homo sapiens, UniProt P50052); format: cell-based; conditions: cho-k1; further: in other assays of this panel Not Active means under 50% inhibition at 10 µM
T1 sequence (P50052 whole entry): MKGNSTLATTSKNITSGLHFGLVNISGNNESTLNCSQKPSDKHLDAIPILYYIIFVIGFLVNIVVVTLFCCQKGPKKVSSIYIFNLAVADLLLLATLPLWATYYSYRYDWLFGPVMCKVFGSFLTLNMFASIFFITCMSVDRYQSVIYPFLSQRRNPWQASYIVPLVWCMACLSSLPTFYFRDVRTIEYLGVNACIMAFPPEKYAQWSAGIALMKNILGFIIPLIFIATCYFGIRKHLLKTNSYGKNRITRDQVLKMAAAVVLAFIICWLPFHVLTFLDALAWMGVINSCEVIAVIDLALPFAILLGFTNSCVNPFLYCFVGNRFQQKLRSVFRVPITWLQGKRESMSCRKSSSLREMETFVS

[3] = DRUGMATRIX: Calcium Channel Type L, Benzothiazepine radioligand binding (ligand: [3H] Diltiazem); format: cell membranes, Rattus norvegicus, Wistar, Brain, Membrane; conditions: Not Active = under 50% inhibition at 10 µM
Substance-K receptor = biological target: T2, Substance-K receptor (Homo sapiens, UniProt P21452); format: cell membranes, CHO, Membrane; conditions: cho; further: in other assays of this panel Not Active means under 50% inhibition at 10 µM
T2 sequence (P21452 whole entry): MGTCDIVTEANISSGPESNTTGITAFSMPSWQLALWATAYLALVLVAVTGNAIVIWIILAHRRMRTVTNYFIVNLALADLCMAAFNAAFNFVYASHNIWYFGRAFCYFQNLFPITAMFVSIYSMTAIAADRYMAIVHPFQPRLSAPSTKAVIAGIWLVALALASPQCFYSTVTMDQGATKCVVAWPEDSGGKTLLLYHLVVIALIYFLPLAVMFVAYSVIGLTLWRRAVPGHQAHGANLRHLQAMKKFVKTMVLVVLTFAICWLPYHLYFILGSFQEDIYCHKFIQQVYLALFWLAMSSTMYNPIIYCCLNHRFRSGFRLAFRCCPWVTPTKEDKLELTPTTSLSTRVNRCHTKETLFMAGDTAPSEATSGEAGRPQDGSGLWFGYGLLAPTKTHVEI

[4] = biological target: T3, C-C chemokine receptor type 4 (Homo sapiens, UniProt P51679); format: cell membranes, Membrane; conditions: chem-1; further: in other assays of this panel Not Active means under 50% inhibition at 10 µM
T3 sequence (P51679 whole entry): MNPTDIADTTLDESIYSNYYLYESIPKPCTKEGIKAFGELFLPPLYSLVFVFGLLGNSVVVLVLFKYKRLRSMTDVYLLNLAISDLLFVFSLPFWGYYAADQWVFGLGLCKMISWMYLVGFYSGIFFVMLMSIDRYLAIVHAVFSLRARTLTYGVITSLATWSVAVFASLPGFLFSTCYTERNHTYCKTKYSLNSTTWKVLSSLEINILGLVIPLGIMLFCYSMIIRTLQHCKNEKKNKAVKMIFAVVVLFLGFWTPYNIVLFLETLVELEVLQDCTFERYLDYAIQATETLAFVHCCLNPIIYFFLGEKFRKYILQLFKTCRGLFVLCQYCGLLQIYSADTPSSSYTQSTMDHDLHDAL

[5] = DRUGMATRIX: Glutamate, NMDA, Agonism radioligand binding (ligand: [3H] CGP-39653); format: cell membranes, Rattus norvegicus, Wistar, Cerebral cortex, Membrane; conditions: Not Active = under 50% inhibition at 10 µM
[6] = DRUGMATRIX: Glutamate, NMDA, Phencyclidine radioligand binding (ligand: [3H] TCP); format: cell membranes, Rattus norvegicus, Wistar, Cerebral cortex, Membrane; conditions: Not Active = under 50% inhibition at 10 µM
[7] = biological target: T4, Neuropeptide Y receptor type 1 (Homo sapiens, UniProt P25929); format: cell membranes, Membrane; conditions: sk-n-mc; further: in other assays of this panel Not Active means under 50% inhibition at 10 µM
T4 sequence (P25929 whole entry): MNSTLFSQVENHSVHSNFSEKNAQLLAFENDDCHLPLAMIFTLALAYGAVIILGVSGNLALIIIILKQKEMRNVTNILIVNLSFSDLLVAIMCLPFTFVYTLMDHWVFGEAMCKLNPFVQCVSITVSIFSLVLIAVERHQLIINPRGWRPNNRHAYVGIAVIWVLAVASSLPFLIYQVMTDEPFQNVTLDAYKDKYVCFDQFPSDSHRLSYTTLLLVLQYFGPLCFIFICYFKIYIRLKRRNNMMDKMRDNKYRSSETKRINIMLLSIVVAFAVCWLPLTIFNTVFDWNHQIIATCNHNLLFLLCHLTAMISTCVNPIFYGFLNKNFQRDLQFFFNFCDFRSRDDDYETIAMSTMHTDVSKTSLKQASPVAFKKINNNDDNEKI

[8] = DRUGMATRIX: Platelet-Derived Growth Factor (PDGF) radioligand binding (ligand: [125I] PDGF); format: cell-based; conditions: nih3t3; Not Active = under 50% inhibition at 10 µM
[9] = biological target: Mitogen-activated protein kinase 3 (Homo sapiens, UniProt P27361); experiment: DRUGMATRIX: Protein Serine/Threonine Kinase, ERK1 enzyme inhibition (substrate: Myelin Basic Protein); parameters: species or system Escherichia coli; conditions: Not Active = under 50% inhibition at 10 µM
[10] = biological target: Mitogen-activated protein kinase 1 (Homo sapiens, UniProt P28482); experiment: DRUGMATRIX: Protein Serine/Threonine Kinase, ERK2 enzyme inhibition (substrate: Myelin Basic Protein); parameters: species or system Escherichia coli; conditions: Not Active = under 50% inhibition at 10 µM
[11] = biological target: Tyrosine-protein kinase Fyn (Homo sapiens, UniProt P06241); experiment: biochemical; format: cell-based, Insect cells
Acetylcholinesterase = Acetylcholinesterase (Homo sapiens, UniProt P22303); experiment: DRUGMATRIX: Acetylcholinesterase enzyme inhibition (substrate: acetylthiocholine); format: cell-based, HEK293; conditions: hek293; Not Active = under 50% inhibition at 10 µM
Cytochrome P450 3A4 = Cytochrome P450 3A4 (Homo sapiens, UniProt P08684); conditions: bti-tn-5b1-4; further: in other assays of this panel Not Active means under 50% inhibition at 10 µM
[12] = biological target: Voltage-gated inwardly rectifying potassium channel KCNH2 (Homo sapiens, UniProt Q12809); conditions: hek293; further: in other assays of this panel Not Active means under 50% inhibition at 10 µM
Voltage-gated inwardly rectifying potassium channel KCNH2, sequence (Q12809 whole entry): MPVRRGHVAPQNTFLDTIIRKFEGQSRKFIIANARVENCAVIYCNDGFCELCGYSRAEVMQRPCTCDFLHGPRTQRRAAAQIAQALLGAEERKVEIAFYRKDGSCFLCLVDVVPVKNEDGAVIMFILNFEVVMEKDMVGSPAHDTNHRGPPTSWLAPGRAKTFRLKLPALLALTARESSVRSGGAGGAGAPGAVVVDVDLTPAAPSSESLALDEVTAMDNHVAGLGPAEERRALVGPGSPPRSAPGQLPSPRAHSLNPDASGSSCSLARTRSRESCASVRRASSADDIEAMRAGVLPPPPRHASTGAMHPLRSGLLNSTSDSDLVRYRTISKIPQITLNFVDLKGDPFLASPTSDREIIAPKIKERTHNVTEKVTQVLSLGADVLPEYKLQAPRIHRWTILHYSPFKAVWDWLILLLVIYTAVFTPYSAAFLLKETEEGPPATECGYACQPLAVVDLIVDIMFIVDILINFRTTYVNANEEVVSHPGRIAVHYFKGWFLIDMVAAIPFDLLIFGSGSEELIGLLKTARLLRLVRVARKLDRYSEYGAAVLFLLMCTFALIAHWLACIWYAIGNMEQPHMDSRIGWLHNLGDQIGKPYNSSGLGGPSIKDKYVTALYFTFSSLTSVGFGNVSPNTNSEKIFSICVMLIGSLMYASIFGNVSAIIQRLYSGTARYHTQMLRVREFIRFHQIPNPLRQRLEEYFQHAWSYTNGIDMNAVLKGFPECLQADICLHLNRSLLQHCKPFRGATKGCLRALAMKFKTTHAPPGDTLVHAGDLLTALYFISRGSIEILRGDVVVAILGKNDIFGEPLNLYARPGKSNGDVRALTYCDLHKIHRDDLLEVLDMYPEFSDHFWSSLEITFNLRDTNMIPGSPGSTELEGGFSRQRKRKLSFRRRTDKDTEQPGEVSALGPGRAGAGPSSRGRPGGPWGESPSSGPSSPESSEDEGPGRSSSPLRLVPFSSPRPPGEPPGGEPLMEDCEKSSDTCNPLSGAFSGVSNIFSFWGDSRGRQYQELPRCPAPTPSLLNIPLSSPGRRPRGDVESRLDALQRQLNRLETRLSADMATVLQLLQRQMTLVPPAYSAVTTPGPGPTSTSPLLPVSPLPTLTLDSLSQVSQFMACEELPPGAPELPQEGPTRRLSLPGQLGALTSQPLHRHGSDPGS

Cytochrome P450 3A4, sequence (P08684 whole entry): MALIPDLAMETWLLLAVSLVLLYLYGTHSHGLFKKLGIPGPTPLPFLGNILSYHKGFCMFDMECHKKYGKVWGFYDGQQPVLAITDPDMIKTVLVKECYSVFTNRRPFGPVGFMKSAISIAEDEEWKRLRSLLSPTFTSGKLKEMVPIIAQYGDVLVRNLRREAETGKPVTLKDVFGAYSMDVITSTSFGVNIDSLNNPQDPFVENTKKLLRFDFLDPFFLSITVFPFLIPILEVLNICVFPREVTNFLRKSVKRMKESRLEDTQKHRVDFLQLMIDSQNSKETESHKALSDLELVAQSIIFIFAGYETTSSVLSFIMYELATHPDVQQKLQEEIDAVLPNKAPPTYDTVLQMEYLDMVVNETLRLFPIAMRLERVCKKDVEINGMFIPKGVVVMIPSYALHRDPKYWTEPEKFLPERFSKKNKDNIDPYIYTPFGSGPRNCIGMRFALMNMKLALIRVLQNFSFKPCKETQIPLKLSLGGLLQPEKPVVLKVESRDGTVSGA
Mitogen-activated protein kinase 3, sequence (P27361 whole entry): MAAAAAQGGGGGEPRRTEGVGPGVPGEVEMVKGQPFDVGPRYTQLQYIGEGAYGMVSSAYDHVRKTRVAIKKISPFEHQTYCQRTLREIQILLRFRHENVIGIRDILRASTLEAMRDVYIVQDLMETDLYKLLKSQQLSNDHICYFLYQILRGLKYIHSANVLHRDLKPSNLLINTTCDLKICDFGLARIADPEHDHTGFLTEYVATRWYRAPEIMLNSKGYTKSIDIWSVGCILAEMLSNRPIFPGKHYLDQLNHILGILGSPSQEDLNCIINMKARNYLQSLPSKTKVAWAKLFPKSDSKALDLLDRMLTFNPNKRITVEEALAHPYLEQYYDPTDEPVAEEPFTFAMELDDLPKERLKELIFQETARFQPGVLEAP
Mitogen-activated protein kinase 1, sequence (P28482 whole entry): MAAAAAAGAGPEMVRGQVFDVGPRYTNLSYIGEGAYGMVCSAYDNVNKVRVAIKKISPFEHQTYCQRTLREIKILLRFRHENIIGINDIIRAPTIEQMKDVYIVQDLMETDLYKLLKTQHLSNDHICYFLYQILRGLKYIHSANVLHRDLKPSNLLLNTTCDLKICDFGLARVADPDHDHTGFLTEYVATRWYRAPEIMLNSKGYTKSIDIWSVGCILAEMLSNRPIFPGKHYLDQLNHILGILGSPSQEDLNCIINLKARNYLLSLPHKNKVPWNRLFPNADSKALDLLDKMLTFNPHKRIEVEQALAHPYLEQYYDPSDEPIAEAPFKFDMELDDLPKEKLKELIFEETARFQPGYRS
Acetylcholinesterase, sequence (P22303 whole entry): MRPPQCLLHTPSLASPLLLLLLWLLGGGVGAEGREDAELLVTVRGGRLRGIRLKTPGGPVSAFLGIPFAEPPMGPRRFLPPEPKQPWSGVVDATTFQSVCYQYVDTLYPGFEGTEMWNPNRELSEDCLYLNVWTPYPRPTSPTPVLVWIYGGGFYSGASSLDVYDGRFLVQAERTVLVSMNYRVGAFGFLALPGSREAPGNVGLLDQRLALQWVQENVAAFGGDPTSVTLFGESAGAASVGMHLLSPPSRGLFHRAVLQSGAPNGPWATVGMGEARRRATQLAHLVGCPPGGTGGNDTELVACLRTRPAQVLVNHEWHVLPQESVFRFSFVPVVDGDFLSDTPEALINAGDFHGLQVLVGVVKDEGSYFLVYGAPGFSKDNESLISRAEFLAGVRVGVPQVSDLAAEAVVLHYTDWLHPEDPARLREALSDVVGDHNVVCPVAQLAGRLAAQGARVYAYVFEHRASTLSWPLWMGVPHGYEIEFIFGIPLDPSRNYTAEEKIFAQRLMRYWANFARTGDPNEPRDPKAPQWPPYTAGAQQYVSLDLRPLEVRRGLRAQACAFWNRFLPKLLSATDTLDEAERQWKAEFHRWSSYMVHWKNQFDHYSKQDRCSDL
Tyrosine-protein kinase Fyn, sequence (P06241 whole entry): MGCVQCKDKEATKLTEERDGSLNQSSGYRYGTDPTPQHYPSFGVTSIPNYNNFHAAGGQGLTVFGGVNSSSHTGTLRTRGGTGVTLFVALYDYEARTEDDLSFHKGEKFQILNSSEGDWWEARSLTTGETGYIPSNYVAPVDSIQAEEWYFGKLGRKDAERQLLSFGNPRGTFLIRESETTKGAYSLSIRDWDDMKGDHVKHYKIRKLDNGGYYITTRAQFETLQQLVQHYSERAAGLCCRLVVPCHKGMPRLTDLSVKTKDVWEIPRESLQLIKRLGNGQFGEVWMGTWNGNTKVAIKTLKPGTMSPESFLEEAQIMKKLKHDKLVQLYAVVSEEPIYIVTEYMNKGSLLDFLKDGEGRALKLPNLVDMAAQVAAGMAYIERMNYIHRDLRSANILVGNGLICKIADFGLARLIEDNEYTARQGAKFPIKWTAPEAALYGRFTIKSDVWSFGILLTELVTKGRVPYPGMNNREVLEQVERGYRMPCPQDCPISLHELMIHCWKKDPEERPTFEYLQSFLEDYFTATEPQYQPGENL

Structure (SMILES)	IC50 [1]	IC50 [2]	IC50 [3]	Ki [3]	IC50 (Substance-K receptor)	IC50 [4]	IC50 [5]	Ki [5]	IC50 [6]	Ki [6]	IC50 [7]	IC50 [8]	Ki [8]	IC50 [9]	IC50 [10]	IC50 ([11]; insect cells)	IC50 (Acetylcholinesterase)	IC50 (Cytochrome P450 3A4)	IC50 [12]	Ki [12]	other results
CC1(C)S[C@@H]2[C@H](NC(=O)[C@H](N)c3ccc(O)cc3)C(=O)N2[C@H]1C(=O)O [AMOXICILLIN]	Not Active	Not Active	Not Active	Not Active	Not Active	Not Active	Not Active	Not Active	Not Active	Not Active	Not Active	Not Active	Not Active	Not Active	Not Active	Not Active	Not Active	Not Active	–	–	Ki (Cytochrome P450 3A4): Not Active
CN(C)CCCC1(c2ccc(F)cc2)OCc2cc(C#N)ccc21 (stereo unspecified) [CITALOPRAM]	Not Active	Not Active	–	–	Not Active	Not Active	Not Active	Not Active	Not Active	Not Active	Not Active	Not Active	Not Active	Not Active	Not Active	Not Active	Not Active	Not Active	–	–	IC50 ([3]; read-out: IC50): 1790 nM; Ki ([3]; read-out: Ki): 1590 nM; Ki (Cytochrome P450 3A4): Not Active
COC(=O)[C@H](c1ccccc1Cl)N1CCc2sccc2C1 [CLOPIDOGREL]	Not Active	Not Active	Not Active	Not Active	Not Active	Not Active	Not Active	Not Active	Not Active	Not Active	Not Active	Not Active	Not Active	Not Active	Not Active	Not Active	Not Active	–	Not Active	Not Active	–
CN1C[C@H](C(=O)N[C@]2(C)O[C@@]3(O)[C@@H]4CCCN4C(=O)[C@H](Cc4ccccc4)N3C2=O)C=C2c3cccc4[nH]cc(c34)C[C@H]21 [ERGOTAMINE]	Not Active	Not Active	Not Active	Not Active	Not Active	Not Active	Not Active	Not Active	Not Active	Not Active	Not Active	Not Active	Not Active	Not Active	Not Active	–	Not Active	–	Not Active	Not Active	IC50 ([11]; read-out: IC50): 3.16 µM
Cc1c(-c2ccccc2)oc2c(C(=O)OCCN3CCCCC3)cccc2c1=O [FLAVOXATE]	Not Active	Not Active	Not Active	Not Active	Not Active	Not Active	Not Active	Not Active	Not Active	Not Active	Not Active	Not Active	Not Active	Not Active	Not Active	Not Active	Not Active	Not Active	–	–	Ki (Cytochrome P450 3A4): Not Active
NCC(=O)O [GLYCINE]	Not Active	Not Active	Not Active	Not Active	Not Active	Not Active	Not Active	Not Active	Not Active	Not Active	Not Active	Not Active	Not Active	Not Active	Not Active	Not Active	Not Active	–	Not Active	Not Active	–
O=P1(NCCCl)OCCCN1CCCl (stereo unspecified) [IFOSFAMIDE]	Not Active	Not Active	Not Active	Not Active	Not Active	Not Active	Not Active	Not Active	Not Active	Not Active	Not Active	Not Active	Not Active	Not Active	Not Active	Not Active	Not Active	–	Not Active	Not Active	–
CC1COc2c(N3CCN(C)CC3)c(F)cc3c(=O)c(C(=O)O)cn1c23 (stereo unspecified) [OFLOXACIN]	Not Active	Not Active	Not Active	Not Active	Not Active	Not Active	Not Active	Not Active	Not Active	Not Active	Not Active	Not Active	Not Active	Not Active	Not Active	Not Active	Not Active	–	Not Active	Not Active	–
Fc1ccc([C@@H]2CCNC[C@H]2COc2ccc3c(c2)OCO3)cc1 [PAROXETINE]	Not Active	Not Active	–	–	Not Active	Not Active	Not Active	Not Active	Not Active	Not Active	Not Active	Not Active	Not Active	Not Active	Not Active	Not Active	Not Active	Not Active	–	–	IC50 ([3]; read-out: IC50): 373 nM; Ki ([3]; read-out: Ki): 331 nM; Ki (Cytochrome P450 3A4): Not Active
